# Test results taken from article PMC12298351, “Novel 3,19-(N-Phenyl-3-(4-fluorophenyl)-pyrazole) Acetal of Andrographolide Promotes Cell Cycle Arrest and Apoptosis in MDA-MB-231 Breast Cancer Cells” (Pharmaceuticals, 2025).
# Experiments:
# COLO 205 = details: COLO 205, Colon
# HCC-2998 = details: HCC-2998, Colon
# SK-MEL-5 = details: SK-MEL-5, Melanoma
# OVCAR-5 = details: OVCAR-5, Ovarian
# SF-539 = details: SF-539, CNS
# HCT-116 = type: cell-based; details: HCT-116, Colon
# SF-295 = details: SF-295, CNS
# SK-MEL-2 = details: SK-MEL-2, Melanoma
# SNB-75 = details: SNB-75, CNS
# HCT-15 = details: HCT-15, Colon
# HT29 = details: HT29, Colon
# BT-549 = type: cell-based; details: BT-549, Breast
# 786-0 = details: 786-0, Renal
# PC-3 = details: PC-3, Prostate
# MDA-MB-435 = details: MDA-MB-435, Melanoma
# SNB-19 = type: cell-based; details: SNB-19, CNS
# MOLT-4 = details: MOLT-4, Leukemia
# OVCAR-4 = type: cell-based; details: OVCAR-4, Ovarian
# [1] = DPPH radical scavenging assay; details: 25 µM test compound, 0.1 mM DPPH, acetonitrile, 30 min
# Procedure: A stable free radical DPPH (2,2-Diphenyl-1-picrylhydrazyl) assay was employed to test the antioxidant activity of all the synthesized compounds. Concisely, 25 µM of the test compounds were dissolved in acetonitrile and combined with 0.1 mM of DPPH (in acetonitrile) in a 1:2 ratio (80 µL and 160 µL). Then, the mixture was left undisturbed in the dark for 30 min at room temperature. After 30 min, the absorbance of the solutions was instantly measured at 517 nm using a Varioskan Multiplate Reader (Thermo Fisher Scientific, Mumbai, India). Ascorbic acid (in acetonitrile) was used as the positive control, and andrographolide and isoandrogapholide (in acetonitrile) were used as the standards. The following equation was used to determine the DPPH radical scavenging activity:% Radical scavenging activity = (Ac − As)/Ac × 100 where Ac = the absorbance of the blank (DPPH solution), and As = the absorbance of the test samples
# [2] = read-out: 50% lethal concentration (LC50)
# [3] = read-out: 50% lethal concentration (LC50), Breast
compound,measurement,setting,value
C=C1CCC2C3(C)COC(c4cn(-c5ccccc5)nc4-c4cccc([N+](=O)[O-])c4)OC3CCC2(C)C1CC=C1C(=O)OCC1O (stereo not drawn) [1b],GI50,COLO 205,2.41 µM
same,Total growth inhibition (TGI),COLO 205,5.06 µM
same,CC50,COLO 205; [2],12.7 µM
same,Total growth inhibition (TGI),"HOP-92; HOP-92, Non-Small Cell Lung",3.64 µM
same,GI50,"HOP-92; HOP-92, Non-Small-Cell Lung",1.86 µM
same,CC50,"HOP-92; read-out: 50% lethal concentration (LC50), HOP-92, Non-Small Cell Lung",7.11 µM
same,GI50,HCC-2998,1.92 µM
same,Total growth inhibition (TGI),HCC-2998,3.53 µM
same,CC50,HCC-2998; [2],6.48 µM
same,GI50,HL-60(TB); Leukemia,1.73 µM
same,Total growth inhibition (TGI),HL-60(TB); Leukemia,> 100 µM
same,CC50,"HL-60(TB); read-out: 50% lethal concentration (LC50), Leukemia",> 100 µM
same,GI50,HS 578T; Breast,2.69 µM
same,CC50,HS 578T; [3],> 100 µM
same,GI50,SK-MEL-5,1.63 µM
same,Total growth inhibition (TGI),SK-MEL-5,3 µM
same,CC50,SK-MEL-5; [2],5.53 µM
same,GI50,OVCAR-5,2.06 µM
same,Total growth inhibition (TGI),OVCAR-5,5.05 µM
same,GI50,SF-539,1.74 µM
same,Total growth inhibition (TGI),SF-539,3.18 µM
same,CC50,SF-539; [2],5.79 µM
same,GI50,HCT-116,1.99 µM
same,Total growth inhibition (TGI),HCT-116,4.25 µM
same,GI50,SF-295,1.68 µM
same,Total growth inhibition (TGI),SF-295,3.19 µM
same,CC50,SF-295; [2],6.05 µM
same,GI50,SK-MEL-2,1.78 µM
same,Total growth inhibition (TGI),SK-MEL-2,3.51 µM
same,CC50,SK-MEL-2; [2],6.94 µM
same,GI50,SNB-75,7.34 µM
same,Total growth inhibition (TGI),SNB-75,50 µM
same,CC50,SNB-75; [2],> 100 µM
same,GI50,HCT-15,1.74 µM
same,Total growth inhibition (TGI),HCT-15,3.58 µM
same,CC50,HCT-15; [2],7.37 µM
same,GI50,T-47D; Breast,1.76 µM
same,Total growth inhibition (TGI),T-47D; Breast,5.02 µM
same,CC50,T-47D; [3],> 100 µM
same,GI50,"MDA-MB-231; MDA-MB-231, Breast",1.84 µM
same,Total growth inhibition (TGI),"MDA-MB-231; MDA-MB-231/ATCC, Breast",3.44 µM
same,CC50,"MDA-MB-231; read-out: 50% lethal concentration (LC50), MDA-MB-231/ATCC, Breast",6.44 µM
same,Total growth inhibition (TGI),"NCI-H522; NCI-H522, Non-Small Cell Lung",3.41 µM
same,GI50,"NCI-H522; NCI-H522, Non-Small-Cell Lung",1.75 µM
same,CC50,"NCI-H522; read-out: 50% lethal concentration (LC50), NCI-H522, Non-Small Cell Lung",6.65 µM
same,GI50,HT29,1.82 µM
same,Total growth inhibition (TGI),HT29,4.26 µM
same,CC50,HT29; [2],9.95 µM
same,GI50,BT-549,1.94 µM
same,Total growth inhibition (TGI),BT-549,3.8 µM
same,GI50,786-0,3.04 µM
same,Total growth inhibition (TGI),786-0,10.3 µM
same,CC50,786-0; [2],> 100 µM
same,GI50,PC-3,2.75 µM
same,Total growth inhibition (TGI),PC-3,9.04 µM
same,CC50,PC-3; [2],> 100 µM
same,Total growth inhibition (TGI),"NCI-H226; NCI-H226, Non-Small Cell Lung",6.59 µM
same,GI50,"NCI-H226; NCI-H226, Non-Small-Cell Lung",2.38 µM
same,CC50,"NCI-H226; read-out: 50% lethal concentration (LC50), NCI-H226, Non-Small Cell Lung",> 100 µM
same,GI50,MDA-MB-435,3.03 µM
same,Total growth inhibition (TGI),MDA-MB-435,18.3 µM
same,CC50,MDA-MB-435; [2],> 100 µM
same,GI50,SNB-19,3.64 µM
same,Total growth inhibition (TGI),SNB-19,15 µM
same,CC50,SNB-19; [2],60 µM
same,GI50,MOLT-4,2.87 µM
same,Total growth inhibition (TGI),MOLT-4,> 100 µM
same,CC50,MOLT-4; [2],> 100 µM
same,GI50,OVCAR-4,4.05 µM
same,Total growth inhibition (TGI),OVCAR-4,> 100 µM
same,CC50,OVCAR-4; [2],> 100 µM
same,GI50,MALME-3M; Melanoma,1.78 µM
same,Total growth inhibition (TGI),MALME-3M; Melanoma,3.55 µM
same,CC50,"MALME-3M; read-out: 50% lethal concentration (LC50), Melanoma",7.05 µM
same,Total growth inhibition (TGI),"NCI-H23; NCI-H23, Non-Small Cell Lung",3.55 µM
same,GI50,"NCI-H23; NCI-H23, Non-Small-Cell Lung",1.83 µM
same,CC50,"NCI-H23; read-out: 50% lethal concentration (LC50), NCI-H23, Non-Small Cell Lung",6.87 µM
same,% DPPH radical scavenging activity,[1],60.68%
